Data taken from paper PMC9582434, “Ryanodine receptor-active non-dioxin-like polychlorinated biphenyls cause neurobehavioral deficits in larval zebrafish” (Frontiers in Toxicology, 2022).
Entries after “also recorded” stand apart in the source; their conditions may differ.

How the values were obtained:
RYR = tested on: RYR; set-up: method as in Pessah et al., 2006; Holland et al., 2017a; details: ref Pessah et al., 2006; Holland et al., 2017a; cited from earlier work
[1] = PCB body burden in larvae at 5 dpf by gas chromatography; assay type: in vivo, zebrafish; details: for % uptake (measured uptake/theoretical uptake × 100): averaged across 0.1, 1 and 10 µM, larvae at 5 dpf; for larval body burden relative to the other tested PCBs: exposure 6 hpf to 5 dpf
Procedure: PCB body burden was assessed at 5 dpf by pressurized liquid extraction Dionex ASE200 system (Thermo Scientific, Sunnyvale, CA, United States) ([Wu et al., 2015]). Briefly, zebrafish larvae samples (n = 36–51 per sample) were mixed with diatomaceous earth (2 g) and placed in an extraction cell (33 ml) containing Florisil (60–100 mesh, 12 g, Fisher Scientific, Fair Lawn, NJ, United States). PCB 117 (100 ng) was added to each sample as surrogate recovery standard, and the cells were extracted with hexane-acetone (1:1, v/v) at 100°C and 1,500 psi (10 MPa) with preheat equilibration for 6 min, 35% of cell flush volume and 1 static cycle of 5 min. Method blanks containing only Florisil and diatomaceous earth and sample blanks with naïve (unexposed) and/or DMSO-exposed zebrafish larvae were extracted in parallel with each sample set. The extracts were concentrated to approximately 0.75 ml using a Turbo Vap II (Biotage, Charlotte, NC, United States) and transferred to glass tubes. Samples were further cleaned up, as described previously, to remove sulfur and other impurities ([Kania-Korwel et al., 2007]). All samples were spiked with PCB 204 (100 ng) as internal standard (volume corrector) prior to gas chromatographic analysis.
Analysis of PCBs was performed in the splitless mode on an Agilent 7890 gas chromatograph equipped with a ^63Ni micro electron capture detector (µECD) and a SPB-1 capillary column (length, 60 m; inner diameter, 250 μm; and 0.25 µm film thickness; Supelco, St. Louis, MO, United States) ([Wu et al., 2013]). The following temperature program was used based on a published method ([Kania-Korwel et al., 2011]): hold at 80°C for 1 min, 20°C/min to 215°C, then 0.1°C/min to 219.5°C, and 20°C/min to 280°C, then hold at 280°C for 3 min. A constant helium flow rate of 1 ml/min was used for all analyses. The injector and detector temperatures were 250°C and 300°C, respectively. The ^63Ni-μECD used for the PCB analysis was linear up to concentrations of 1,000 ng/ml for all analytes investigated (R ^2 > 0.999). The recovery of PCB 117 was 83 ± 7% (range: 71–97%). A detailed summary of the limits of detection, limits of quantification, and background levels of the analyzed PCBs is presented in Supplementary Table S1.
The neurotoxic potential of the congeners tested in this study were ranked based on the three endpoints measured in this study: RYR binding, behavior, and body burden. Congeners were ranked relative to each other for each individual endpoint from 1 (highest) to 6 (lowest), and then the three scores for each congener averaged to obtain an overall relative ranking for each congener. Ranking for RYR activation was based on EC2X values and their relative comparisons. Behavior ranking represents the total change from control for each congener across all epochs (L1, D1, L2, and D2) and all days (3, 4, and 5 dpf) tested. AUC values were normalized to the appropriate DMSO control (AUC value/DMSO). Each value was then subtracted from 1 to determine the deviation from the control values [1 − (AUC value/DMSO)]. Absolute values were combined for all concentrations of each congener across all time points (epochs and testing days). PCB body burden was ranked as the percentage uptake using the following calculation: (uptake/total PCB) × 100, where, the uptake values were the measured PCB levels in the samples, and the total PCB values were calculated using the exposure concentration (0.1, 1, or 10 μM) and volume (200 μl). The resulting values were averaged across the three assayed concentrations and rounded to the closest integer to obtain the final ranking order.

[2] = tested on: RYR paralogs found in zebrafish skeletal muscle; test: [3H]ryanodine ligand binding assay, adult zebrafish tail muscle microsomes; details: for Max. response SEM (%): maximum [3H]Ry binding response compared to DMSO control, mean ± SEM; for EC50: relative EC50, concentration causing half-maximum response, PCB 0.1–50 μM; for RYR activity (in words): zebrafish muscle; for EC2X: concentration causing two-fold induction in ligand binding vs DMSO control
Procedure: Sensitization of the zebrafish RYR by ortho-PCBs was measured using [^3H]ryanodine ([^3H]Ry) ligand binding assays as previously described ([Fritsch and Pessah, 2013]). Briefly, crude microsomal protein preparations were created from the tail (post dorsal fin) muscle (primarily white skeletal muscle) of six adult zebrafish (∼1 year old) that was homogenized in a buffer containing 320 mM sucrose, 5 mM HEPES, 1 mM PMSF, 10 mM NaF, 2 mM β-Glycerol, 5 mM Na4P2O7, 0.5 mM Na3VO4 and 2 μg/L leupeptin (pH 7.2). The homogenate was centrifuged at 5,000 × g (4°C) for 15 min. The pellet was re-homogenized in 5 ml homogenization buffer and centrifuged at 5,000 × g. Supernatants were combined for ultracentrifugation at 100,000 g (4°C for 1 h). The resultant pellet was re-suspended in a buffer of 320 mM sucrose and 5 mM HEPES (Sigma-Aldrich, St. Louis, MO, United States) at pH 7.2. Protein concentrations were determined in triplicate using a BCA Assay (Fisher Scientific, Waltham, MA, United States). [^3H]Ry ligand binding assays were conducted with 40 μg/ml of the crude protein homogenate in the presence of DMSO (0.5%) or 0.1–50 μM of individual PCB congeners in 0.5% DMSO. Tests were run using 5 nM [^3H]Ry (Perkin Elmer Waltham, MA, United States), 250 mM KCl, 20 mM HEPES, 15 mM NaCl, and 50 μM CaCl2 (pH 7.1) and incubated for 16 h at 25°C. Non-specific binding was determined with the addition of 10 µM ryanodine (Tocris Bioscience, Bristol, United Kingdom) and 200 μM EGTA (Sigma-Aldrich, St. Louis, MO, United States). Assays were terminated by rapid filtration through Whatman GF/B filter paper (Brandel, Gaithersburg, MD, United States) and washed with ice-cold buffer containing 140 mM KCl, 10 mM HEPES, and 0.1 mM CaCl2, pH 7.4. Bound radioligand was measured by liquid scintillation counting (Beckman Coulter, Indianapolis, IN, United States). PCB-induced [^3H]Ry binding was assessed in two different protein preparations, and each assay was run in triplicate. Individual PCB concentration-response curves were determined using non-linear regression (GraphPad Prism 6.0, GraphPad Software Inc., San Diego, CA, United States).

| SMILES | in vitro potency at the RYR (in words) (RYR) | % uptake (measured uptake/theoretical uptake × 100) [1] [%] | concentration failing to cause a 2-fold (EC2X) increase in channel activity [2] | Max. response SEM (%) [2] [%] | EC50 [2] [µM] | RYR activity (in words) [2] | larval body burden relative to the other tested PCBs [1] | EC2X [2] | maximal effect compared to the DMSO control ([2]; concentrations above 3 µM) [%] | change in RYR activity at low concentrations ([2]; concentrations below 3 µM, biphasic effect) | increase in [3H]Ry-binding ([2]; measure of channel activation) [%] |
| --- | --- | --- | --- | --- | --- | --- | --- | --- | --- | --- | --- |
| Clc1ccc(-c2ccc(Cl)cc2Cl)cc1 [PCB 28] | negligible | 4.5 | above 10 µM | 170.60 ± 13.28 | 0.67 | limited |  |  |  |  |  |
| Clc1cc(Cl)c(-c2ccc(Cl)c(Cl)c2Cl)cc1Cl [PCB 138] | moderate | 13.8 |  | 388.20 ± 74.93 | 9.6 | moderate | highest | 4.18 |  |  |  |
| Clc1cccc(-c2c(Cl)ccc(Cl)c2Cl)c1Cl [PCB 84] | potent | 9.2 |  | 437.50 ± 35.72 | 8.97 |  |  | 6.97 | 400 | significant reduction |  |
| Clc1ccc(-c2ccc(Cl)c(Cl)c2)c(Cl)c1 [PCB 66] | negligible | 5.6 | above 10 µM |  | > 50 | negligible; also recorded: limited |  |  |  |  |  |
| Clc1cc(Cl)c(-c2cc(Cl)c(Cl)cc2Cl)cc1Cl [PCB 153, 2,2',4,4',5,5'-Hexachlorobiphenyl] | moderate | 1.4 |  | 320.40 ± 92.18 | 4.34 | moderate | lowest | 3.88 |  |  |  |
| Clc1ccc(Cl)c(-c2c(Cl)ccc(Cl)c2Cl)c1 [PCB 95, 2,2',3,5',6-pentachlorobiphenyl] | potent | 7.4 |  | 734.70 ± 49.87 | 3.79 | high |  | 1.5 |  |  | ~800 |
